pIC50: −log10 of the molar value. Read-outs that look alike come from different tables or passages of the source.
Tests used:
[1] = test system: MAC formation in normal human serum; assay: Human serum MAC formation assay (zymosan-coated plates, 50% normal human serum); conditions: 50% normal human serum with EGTA, 37° C. 30 minutes
Method: MAC deposition assay using normal human serum was applied to evaluate compound potency under physiologically relevant conditions. Black Maxisorp plates (Thermo Fisher, 437111) were coated with preactivated zymosan (Complement Technology, B400) at 0.5 mg/mL in carbonate buffer (pH 9.5, Sigma, C3041) at room temperature overnight. Compounds were serial diluted 3-fold in 100% DMSO for a 10-point dose-response curve. Normal human serum (Complement Technology, NHS) was diluted to 50% (v/v) with the gelatin buffer (4.2 mM HEPES pH 7.4, 0.15 mM CaCl2, 141 mM NaCl, 4.5 mM MgCl2, 0.1% gelatin) containing 20 mM EGTA or 20 mM EDTA. In conical bottom 96-well plates, 1 μL compound and 99 μL of serum-EGTA were mixed. Serum-EDTA was used as baseline control. The serum-compound mixture was incubated at room temperature for 15 minutes before being transferred to the washed zymosan plate for complement activation at 37° C. for 30 minutes. The reaction was terminated by decanting the reaction mixture and adding blocking buffer (Thermo Fisher, 37539) for 20 minutes. MAC formation on the ELISA plate was detected using 0.2 μg/mL mouse anti-human C9 neoepitope monoclonal antibody (Thermo Fisher, MA5-33373) diluted in phosphate-buffered saline with 0.05% Tween-20 (PBST). A goat anti-mouse IgG-HRP antibody (Thermo Fisher, A16072) was used at 1:2000 in PBST as secondary antibody. After washing, the reaction was developed using QuantaBlu (Thermo Fisher, 15169) for 20 minutes at room temperature. The plates were read at 325 nm excitation and 420 nm emission wavelengths. Percent inhibition values were generated using the baseline (EDTA-serum) and the maximum control (EGTA-serum). An IC50 for each compound was calculated using 4-parameter logistic regression.

[2] = target: human C3bBb (Homo sapiens (Human), UniProt P00751); assay: Human C3bBb enzyme assay (C3a generation from C3, ELISA); format: biochemical; conditions: read-out: Human C3b:Bb IC50 Avg
Method: Compounds disclosed herein were evaluated for their potency to inhibit human C3bBb in a biochemical assay. To generate active C3bBb complex in vitro, purified human C3b (Complement Technology, A114), CFB (Complement Technology, A135) and CFD (Complement Technology, A136) were mixed in a 1:1:1 ratio to a final concentration of 1 μM each in the C3bBb assay buffer (PBS pH 7.4, 100 μM NiCl2, 0.05% (w/v) CHAPS). The reaction mix was incubated at room temperature for 30 minutes on a rotating platform. […] On the day of the enzyme assay, a reaction mixture containing 3 nM C3bBb complex and 1 μM purified human C3 (Complement Technology, A113) was prepared in the C3bBb assay buffer. Compounds were serial diluted 3-fold in 100% DMSO for a 10-point dose-response curve. A 0.5 μL aliquot of diluted compound solution was transferred to a conical bottom 96-well plate, before 49.5 μL of the reaction mix was added to each well to initiate the reaction. The plate was incubated for 1 hour at room temperature. […] The generation of C3a from C3 by the C3bBb complex was measured using the MicroVue C3a Plus EIA ELISA kit (Quidel, A031). The concentration of C3a from each well was calculated using a standard curve. Percent inhibition values were generated using the baseline (C3 only) and the maximum control (DMSO instead of compound), and IC50 of each compound was calculated using 4-parameter logistic regression.

[3] = starred values: assay conducted with 1 nM C3b:Bb enzyme
[4] = 3 nM C3bBb complex, 1 μM human C3, 1 hour room temperature

Sequence of human C3bBb (P00751 260-764): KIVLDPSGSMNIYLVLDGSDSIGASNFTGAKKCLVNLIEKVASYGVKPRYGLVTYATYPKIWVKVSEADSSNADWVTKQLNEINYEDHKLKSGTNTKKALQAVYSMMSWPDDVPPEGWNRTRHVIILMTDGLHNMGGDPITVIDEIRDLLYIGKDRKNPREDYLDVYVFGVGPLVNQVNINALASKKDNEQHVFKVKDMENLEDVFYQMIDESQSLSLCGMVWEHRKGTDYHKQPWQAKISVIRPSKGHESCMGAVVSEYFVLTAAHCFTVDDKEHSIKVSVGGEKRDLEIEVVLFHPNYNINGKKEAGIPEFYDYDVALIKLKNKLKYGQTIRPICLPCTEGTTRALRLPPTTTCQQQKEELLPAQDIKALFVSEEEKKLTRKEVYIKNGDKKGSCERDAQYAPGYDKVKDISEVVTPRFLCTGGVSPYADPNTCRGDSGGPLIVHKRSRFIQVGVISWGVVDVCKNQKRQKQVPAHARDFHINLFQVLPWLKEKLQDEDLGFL
Sequence of human C3bBb (P01024 23-667 partner): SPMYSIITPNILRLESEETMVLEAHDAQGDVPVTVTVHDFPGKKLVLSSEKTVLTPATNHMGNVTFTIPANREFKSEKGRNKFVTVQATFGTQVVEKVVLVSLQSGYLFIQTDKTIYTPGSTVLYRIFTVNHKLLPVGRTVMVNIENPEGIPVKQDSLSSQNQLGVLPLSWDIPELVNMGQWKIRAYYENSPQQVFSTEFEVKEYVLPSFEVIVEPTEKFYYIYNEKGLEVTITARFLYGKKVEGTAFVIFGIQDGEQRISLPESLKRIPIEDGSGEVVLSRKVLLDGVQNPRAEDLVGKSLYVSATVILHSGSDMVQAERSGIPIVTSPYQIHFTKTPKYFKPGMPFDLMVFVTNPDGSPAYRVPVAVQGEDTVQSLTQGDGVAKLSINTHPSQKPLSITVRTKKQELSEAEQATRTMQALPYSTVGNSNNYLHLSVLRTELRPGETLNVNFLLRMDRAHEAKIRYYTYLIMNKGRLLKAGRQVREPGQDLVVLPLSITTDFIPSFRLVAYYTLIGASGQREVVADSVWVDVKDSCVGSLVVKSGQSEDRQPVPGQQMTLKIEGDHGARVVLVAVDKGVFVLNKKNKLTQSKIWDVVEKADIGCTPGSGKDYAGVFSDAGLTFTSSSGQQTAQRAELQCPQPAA
Sequence of human C3bBb (P01024 749-1663 partner): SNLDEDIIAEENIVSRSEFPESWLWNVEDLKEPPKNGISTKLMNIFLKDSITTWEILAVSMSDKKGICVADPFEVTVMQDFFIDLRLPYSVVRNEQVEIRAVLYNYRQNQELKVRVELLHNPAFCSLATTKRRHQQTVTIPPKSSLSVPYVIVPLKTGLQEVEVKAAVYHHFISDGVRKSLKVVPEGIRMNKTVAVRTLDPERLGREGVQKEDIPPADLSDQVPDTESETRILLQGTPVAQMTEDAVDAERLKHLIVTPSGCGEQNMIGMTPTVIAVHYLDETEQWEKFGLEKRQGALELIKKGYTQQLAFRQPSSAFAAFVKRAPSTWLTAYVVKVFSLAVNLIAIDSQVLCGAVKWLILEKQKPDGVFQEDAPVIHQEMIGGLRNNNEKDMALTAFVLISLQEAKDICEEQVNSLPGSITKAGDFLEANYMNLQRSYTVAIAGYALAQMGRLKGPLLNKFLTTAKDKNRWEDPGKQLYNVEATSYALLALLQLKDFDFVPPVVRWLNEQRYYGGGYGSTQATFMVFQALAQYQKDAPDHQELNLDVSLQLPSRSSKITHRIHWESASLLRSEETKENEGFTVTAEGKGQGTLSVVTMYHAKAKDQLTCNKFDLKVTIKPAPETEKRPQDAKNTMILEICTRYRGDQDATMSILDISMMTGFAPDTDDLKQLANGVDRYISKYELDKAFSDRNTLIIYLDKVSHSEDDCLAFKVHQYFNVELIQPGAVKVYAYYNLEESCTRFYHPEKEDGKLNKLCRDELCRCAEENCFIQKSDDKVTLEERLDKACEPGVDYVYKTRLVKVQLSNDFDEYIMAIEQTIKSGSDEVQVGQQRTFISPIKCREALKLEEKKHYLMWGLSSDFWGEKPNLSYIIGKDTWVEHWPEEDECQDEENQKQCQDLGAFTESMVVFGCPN

Compound | pIC50 [1] | pIC50 [2, 3] | pIC50 [2, 4]
COc1cc(C)c2[nH]ccc2c1CN1CC[C@]2(C[C@H]1c1ccc(C(=O)O)cc1)C[C@@H](C#N)C2 (single isomer, unassigned) [Example 55, 4-((2R,4s,6S)-2-cyano-7-((5-methoxy-7-methyl-1H-indol-4-yl)methyl)-7-azaspiro[3.5]nonan-6-yl)benzoic acid or 4-((2S,4r,6S)-2-cyano-7-((5-methoxy-7-methyl-1H-indol-4-yl)methyl)-7-azaspiro[3.5]nonan-6-yl)benzoic acid] | > 7.00 | > 8.00 | 
COc1cc(C)c2[nH]ccc2c1CN1CC[C@]2(C[C@H]1c1ccc(C(=O)O)cc1)C[C@@H](OC(F)F)C2 (single isomer, unassigned) [Example 56, 4-((2R,4s,6S)-2-(difluoromethoxy)-7-((5-methoxy-7-methyl-1H-indol-4-yl)methyl)-7-azaspiro[3.5]nonan-6-yl)benzoic acid or 4-((2S,4r,6S)-2-(difluoromethoxy)-7-((5-methoxy-7-methyl-1H-indol-4-yl)methyl)-7-azaspiro[3.5]nonan-6-yl)benzoic acid] | > 7.00 | > 8.00 | 
COc1cc(C)c2[nH]ccc2c1CN1CC[C@]2(C[C@H]1c1ccc(C(=O)O)cc1)C[C@@H](OC(F)F)C2 (single isomer, unassigned) [Example 57, 4-((2R,4s,6S)-2-(difluoromethoxy)-7-((5-methoxy-7-methyl-1H-indol-4-yl)methyl)-7-azaspiro[3.5]nonan-6-yl)benzoic acid or 4-((2S,4r,6S)-2-(difluoromethoxy)-7-((5-methoxy-7-methyl-1H-indol-4-yl)methyl)-7-azaspiro[3.5]nonan-6-yl)benzoic acid] | > 7.00 | > 8.00 | 
COc1cc(C)c2[nH]ccc2c1CN1CC[C@]2(C[C@H]1c1ccc(C(=O)O)cc1)C[C@@](C)(O)C2 (single isomer, unassigned) [Example 60, 4-((2R,4s,6S)-2-hydroxy-7-((5-methoxy-7-methyl-1H-indol-4-yl)methyl)-2-methyl-7-azaspiro[3.5]nonan-6-yl)benzoic acid or 4-((2S,4r,6S)-2-hydroxy-7-((5-methoxy-7-methyl-1H-indol-4-yl)methyl)-2-methyl-7-azaspiro[3.5]nonan-6-yl)benzoic acid] | 6.70 to 7.00 | 7.60 to 8.00 | 
COc1cc(C)c2[nH]ccc2c1CN1CC[C@]2(C[C@H]1c1ccc(C(=O)O)cc1)C[C@@H](F)C2 (single isomer, unassigned) [Example 62, 4-((2R,4s,6S)-2-fluoro-7-((5-methoxy-7-methyl-1H-indol-4-yl)methyl)-7-azaspiro[3.5]nonan-6-yl)benzoic acid or 4-((2S,4r,6S)-2-fluoro-7-((5-methoxy-7-methyl-1H-indol-4-yl)methyl)-7-azaspiro[3.5]nonan-6-yl)benzoic acid] | > 7.00 | > 8.00 | 
COc1cc(C)c2[nH]ccc2c1CN1CC[C@]2(C[C@H]1c1ccc(C(=O)O)cc1)C[C@@H](F)C2 (single isomer, unassigned) [Example 63, 4-((2R,4s,6S)-2-fluoro-7-((5-methoxy-7-methyl-1H-indol-4-yl)methyl)-7-azaspiro[3.5]nonan-6-yl)benzoic acid or 4-((2S,4r,6S)-2-fluoro-7-((5-methoxy-7-methyl-1H-indol-4-yl)methyl)-7-azaspiro[3.5]nonan-6-yl)benzoic acid] | > 7.00 | > 8.00 | 
COc1cc(C)c2[nH]ccc2c1CN1CC[C@@]2(C[C@H]1c1ccc(C(=O)O)cc1)CC2(F)F (stereo in doubt) [Example 30, 4-((3R,5S)- or ((3S,5S)-1,1-difluoro-6-((5-methoxy-7-methyl-1H-indol-4-yl)methyl)-6-azaspiro[2.5]octan-5-yl)benzoic acid] | 6.70 to 7.00 | > 8.00 | 
COc1cc(C)c2[nH]ccc2c1CN1CC[C@]2(C[C@H]1c1ccc(C(=O)O)cc1)C[C@@H](O)C2 (stereo in doubt) [Example 64, 4-((2R,4s,6S)-4-(2-hydroxy-7-((5-methoxy-7-methyl-1H-indol-4-yl)methyl)-7-azaspiro[3.5]nonan-6-yl)benzoic acid and 4-((2S,4r,6S)-2-hydroxy-7-((5-methoxy-7-methyl-1H-indol-4-yl)methyl)-7-azaspiro[3.5]nonan-6-yl)benzoic acid] | 6.52 to 6.70 | 7.60 to 8.00 | 
COc1cc(C)c2[nH]ccc2c1CN1CC[C@H](n2cc(F)cn2)C[C@H]1c1ccc(C(=O)O)cc1 [Example 1, 4-((2S,4S)-4-(4-fluoro-1H-pyrazol-1-yl)-1-((5-methoxy-7-methyl-1H-indol-4-yl)methyl)piperidin-2-yl)benzoic acid] | < 6.30 |  | 7.00 to 7.30
COc1cc(C)c2[nH]ccc2c1CN1CC[C@H](n2cc(C(F)(F)F)cn2)C[C@H]1c1ccc(C(=O)O)cc1 [Example 4, 4-((2S,4S)-1-((5-methoxy-7-methyl-1H-indol-4-yl)methyl)-4-(4-(trifluoromethyl)-1H-pyrazol-1-yl)piperidin-2-yl)benzoic acid] | 6.52 to 6.70 |  | > 8.00
COc1cc(C)c2[nH]ccc2c1CN1CC[C@H](n2cc(Cl)cn2)C[C@H]1c1ccc(C(=O)O)cc1 [Example 8] | > 7.00 | > 8.00 | 
COc1cc(C)c2[nH]ccc2c1CN1CC[C@H](n2cc(C#N)cn2)C[C@H]1c1ccc(C(=O)O)cc1 [Example 10, 4-((2S,4S)-4-(4-cyano-1H-pyrazol-1-yl)-1-((5-methoxy-7-methyl-1H-indol-4-yl)methyl)piperidin-2-yl)benzoic acid] | 6.30 to 6.52 |  | 7.00 to 7.30
COc1cc(C)c2[nH]ccc2c1CN1CC[C@H](N2CCCC2=O)C[C@H]1c1ccc(C(=O)O)cc1 [Example 13, 4-((2S,4S)-1-((5-methoxy-7-methyl-1H-indol-4-yl)methyl)-4-(2-oxopyrrolidin-1-yl)piperidin-2-yl)benzoic acid] | 6.70 to 7.00 | 7.00 to 7.30 | 
COc1cc(C)c2[nH]ccc2c1CN1CC[C@H](NCC(F)(F)F)C[C@H]1c1ccc(C(=O)O)cc1 [Example 15, 4-((2S,4S)-1-((5-methoxy-7-methyl-1H-indol-4-yl)methyl)-4-((2,2,2-trifluoroethyl)amino)piperidin-2-yl)benzoic acid] | > 7.00 | > 8.00 | 
COc1cc(C)c2[nH]ccc2c1CN1CC[C@H](NC2COC2)C[C@H]1c1ccc(C(=O)O)cc1 [Example 18, 4-((2S,4S)-1-((5-methoxy-7-methyl-1H-indol-4-yl)methyl)-4-(oxetan-3-ylamino)piperidin-2-yl)benzoic acid] | 6.70 to 7.00 | > 8.00 | 
COc1cc(C)c2[nH]ccc2c1CN1CC[C@H](NC2CC(F)(F)C2)C[C@H]1c1ccc(C(=O)O)cc1 [Example 19, 4-((2S,4S)-4-((3,3-difluorocyclobutyl)amino)-1-((5-methoxy-7-methyl-1H-indol-4-yl)methyl)piperidin-2-yl)benzoic acid] | > 7.00 | > 8.00 | 
COc1cc(C)c2[nH]ccc2c1CN1CC[C@H](NC2CCC2)C[C@H]1c1ccc(C(=O)O)cc1 [Example 20, 4-((2S,4S)-4-(cyclobutylamino)-1-((5-methoxy-7-methyl-1H-indol-4-yl)methyl)piperidin-2-yl)benzoic acid] | 6.30 to 6.52 |  | 7.30 to 7.60
COc1cc(C)c2[nH]ccc2c1CN1CC[C@H](NC23CC(C2)C3)C[C@H]1c1ccc(C(=O)O)cc1 [Example 21, 4-((2S,4S)-4-(bicyclo[1.1.1]pentan-1-ylamino)-1-((5-methoxy-7-methyl-1H-indol-4-yl)methyl)pyiperidin-2-yl)benzoic acid] | 6.70 to 7.00 |  | < 7.00
COc1cc(C)c2[nH]ccc2c1CN1CC[C@H](NCC(F)F)C[C@H]1c1ccc(C(=O)O)cc1 [Example 22, 4-((2S,4S)-4-((2,2-difluoroethyl)amino)-1-((5-methoxy-7-methyl-1H-indol-4-yl)methyl)piperidin-2-yl)benzoic acid] | 6.70 to 7.00 | > 8.00 | 

Source: patent US20250289804A1, “SUBSTITUTED INDOLE COMPOUNDS AND METHODS OF USE THEREOF” (NOVARTIS PHARMA AG, priority 2021, published 2025)
